In the NIST ThermoML archive (doi:10.1016/j.fluid.2016.08.019):
Numbers after ± are expanded uncertainties.

Experiments:
[1] = Crystal; DTA
[2] = Molar enthalpy of transition or fusion; settings: Crystal; DSC

- Normal melting temperature [1]: 138.33 ± 0.39 °C
- Molar enthalpy of transition or fusion [2]: 4.89 ± 0.222 kcal/mol
SMILES: CCOc1ccccc1C(N)=O [Ethenzamide]
